In the METLIN SMRT retention time set (Domingo-Almenara et al. 2019):

Assay: gradient 5% acetonitrile 3 min, to 50% in 2 min, to 85% in 15 min, held 3 min, 100 µL/min
Settings: column: Zorbax Extend-C18 2.1 x 50 mm; eluents: water / acetonitrile, 0.1% formic acid
Summary of the method: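 A Zorbax Extend-C18 column (2.1 × 50 mm, 1.8 μm) run at 100 μL/min with water and acetonitrile, both containing 0.1% formic acid, separated mixtures of ~100 pure standards. The HPLC was coupled to a quadrupole time-of-flight mass spectrometer operated in positive and negative ionization mode, with dead and dwell volumes of 40 μL and 900 μL. Each retention time was taken from a computationally picked adduct peak that was then manually inspected.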

Compound	RP-LC retention time
COC1(C2=NCCN2)COc2ccccc2O1 (stereo not drawn)	581 s
O=C1c2ccccc2C(=O)N1c1nc(-c2ccccc2)cs1	864 s
Cc1noc(-c2csc(C(=O)N3CCCC3)n2)n1	688 s
CCOC(=O)C1CCC(CNC(=O)Nc2cccc(-c3nnc(-c4ccccc4)o3)c2)CC1 (stereo not drawn)	975 s
CCOc1ccc(CNC(=O)C2=C3CCCN3c3ccc(F)cc3S2(=O)=O)cc1	892 s
CCCn1cc(C2=CCN(S(=O)(=O)c3cc(OC)ccc3OC)CC2)c2cccnc21	728 s
Cc1cccc(CNC(=O)C2CCCN(S(=O)(=O)c3cn(C(C)C)cn3)C2)c1 (stereo not drawn)	781 s
COc1ccccc1NC(=O)C1CCN(S(C)(=O)=O)c2ccccc2O1 (stereo not drawn)	916 s
Cc1cc(C)c(NC(=O)Cn2cc(-c3nc(C)no3)ccc2=O)c(C)c1	712 s
Cc1ccc(-c2nc3ncccn3c2Nc2c(C)cccc2C)cc1	820 s
c1ccc(-c2nc(-c3cnccn3)no2)c(OC2CCN(C3CCSCC3)C2)c1 (stereo not drawn)	653 s
O=C(c1ccco1)N1CCC(c2nc(-c3ccccc3)no2)C1 (stereo not drawn)	822 s
COCCC1CCN(C(=O)CN(C)C(=O)c2cnccn2)CC1	580 s
CC1=C(c2ccc(C(C)C)cc2)S(=O)(=O)N=C1N1CCCN(C(=O)c2ccoc2)CC1	911 s
CN(C)[C@@H]1CN(C(=O)c2cc(Cl)ccc2F)C[C@H]1CO	571 s
O=c1oc2cc(O)c(Cl)cc2c2c1CCC2	794 s
CCSc1nnc(-c2nn(C)c3c2CN(S(=O)(=O)c2ccc(OC)c(Cl)c2)CC3)n1CC	968 s
CC1CCN(C(=O)C2CCN(S(=O)(=O)c3cc(C(=O)N4CCCCC4)n(C)c3)CC2)CC1	803 s
Cc1ccc2nc(-c3ccccc3F)cc(C(N)=O)c2c1	778 s
CC(=O)c1cccc(NC(=O)Cn2nc3c4cc(-c5ccc(Cl)cc5)nn4ccn3c2=O)c1	902 s

Compound	RP-LC retention time
Cc1ccc(-n2c(=O)c3sccc3n(Cc3nc(-c4ccc(C)c(C)c4)no3)c2=O)cc1	1150 s
COc1ccc(Cl)cc1S(=O)(=O)N1CCc2c(c(-c3nnc(-c4ccccc4)o3)nn2C)C1	958 s
O=C(c1ccc2c(=O)n(Cc3ccccc3)c(N3CCCC3)nc2c1)N1CCN(c2ccccn2)CC1	655 s
COCCN1C(=O)CCc2cc(NS(=O)(=O)c3ccc(Cl)cc3)ccc21	771 s
O=C(NCc1ccccn1)c1ccc2c(c1)nc1n2CCCCC1	548 s
COc1ccc(NC(=O)C2CN(S(=O)(=O)c3cccnc3)CC23CCCCC3)cc1F (stereo not drawn)	900 s
CCN1CCN(CCNC(=O)CCC(=O)N2CC3CCCN3c3ccccc32)CC1 (stereo not drawn)	561 s
O=C(C1CCN(S(=O)(=O)c2cc(-c3noc(C4CCC4)n3)cs2)CC1)N1CCOCC1	863 s
O=S(=O)(NCC(O)(c1ccccc1)C(F)(F)F)c1cc(F)ccc1F (stereo not drawn)	870 s
Cc1sc(-c2noc(C3CCC3)n2)cc1S(=O)(=O)N1CCC(C(=O)NCC2CCCO2)CC1 (stereo not drawn)	937 s
CCC(c1cccs1)N1C(=O)[C@H]2CN(S(=O)(=O)c3ccc(F)c(F)c3)C[C@H]2C1=O (stereo partly drawn)	1020 s
COc1cccc(S(=O)(=O)N2CCC(Cc3nncn3C)C2)c1 (stereo not drawn)	630 s
Cc1cc(Cl)ccc1S(=O)(=O)N1CCC(OCc2noc(C3CCCO3)n2)CC1 (stereo not drawn)	1030 s
Cc1ccc(-c2nc3cc(C)ccn3c2NC(=O)c2ccc(Cl)cc2)cc1	742 s
O=C(NCCN1CCCC1)C1CCN(c2cnn(CC3CC3)c(=O)c2)C1 (stereo not drawn)	577 s
O=C(Cn1cc(-c2ccccc2)c2ncn(C3CC3)c(=O)c21)NCc1ccco1	799 s
Cc1ccc(NC(=O)Cn2c(=O)n(-c3ccc(F)cc3)c(=O)c3c2cc(C)n3C)c(Cl)c1	946 s
Cc1cc(C)n(-c2ccnc(NCCc3cccnc3)n2)n1	584 s
CC1Oc2ccc(S(=O)(=O)N3CCC(C(=O)NC4CCCCCCC4)CC3)cc2NC1=O (stereo not drawn)	907 s
O=C(c1cscn1)N1CCc2nn(CC3CC3)c(=O)n2CC1	610 s

Compound	RP-LC retention time
COCCNC(=O)c1ccc(-n2nc(C)c3c2CCCC3=O)cc1	633 s
COc1ccc(C(O)Cn2ccn3nc(-c4ccc(C)c(C)c4)cc3c2=O)cc1 (stereo not drawn)	947 s
Cc1cccc(-c2nc(Cn3nnc(C(=O)NCc4ccc(F)c(Cl)c4)c3C)c(C)o2)c1	1180 s
COc1ccc(NC(=O)C2c3cc(OC)c(OC)cc3C(=O)N(C)C2c2cccs2)cc1OC (stereo not drawn)	744 s
CCC1CCCCN1C(=O)CN1CCn2c1nc(C)c(C)c2=O (stereo not drawn)	618 s
CCOc1ccccc1NC(=O)c1cn(-c2cc(N3CCC(C)CC3)ncn2)cn1	1300 s
Cc1cccc(S(=O)(=O)N2CCC(c3cc(N)on3)CC2)c1	615 s
O=C(c1csc(-c2ccc(N3CCCC3)nc2)n1)N1CCCCCC1	937 s
CCN1C(=O)c2cccnc2Sc2cc(CNC(=O)c3ccoc3)ccc21	702 s
O=C(Cc1nnc(-c2cccc(F)c2)o1)N1CCC2(CC1)OCCO2	698 s
CCC1CCCCN1C(=O)c1cnc2nc(C)ccc2c1Nc1ccc(F)cc1C (stereo not drawn)	703 s
COc1cccc(-n2c(=O)c(C(=O)Nc3ccccc3Cl)c(O)c3cccnc32)c1	1290 s
CC1CCCN(S(=O)(=O)c2ccc(-n3cnc(C(=O)NCC4CC4)c3)nc2)C1 (stereo not drawn)	902 s
Cc1ccccc1CNC(=O)C1(C)CCCN(C(=O)Nc2ccccc2)C1 (stereo not drawn)	898 s
COC(=O)c1cccc(Nc2c(-c3cccc(Br)c3)nc3cnccn23)c1	918 s
CC(=O)Nc1ccc(C(=O)N2CC(C)CC(C)C2)o1 (stereo not drawn)	739 s
Cc1nn(-c2nc(-c3ccc(Cl)cc3)cs2)c(C)c1CC(=O)Nc1cccc(C(F)(F)F)c1	1380 s
O=C(O)CCC1(c2ccccc2)NC(=O)NC1=O (stereo not drawn)	651 s

The next lines start with the values.

RP-LC retention time	Compound
583 s	Cc1oc(C2CCC2)nc1C(=O)N1CCN(Cc2ccc3c(c2)OCO3)CC1
915 s	Cc1noc(-c2cc(=O)n(CC(=O)Nc3ccc(Cl)cc3)c3ccccc23)n1
1070 s	COC(=O)C1=C(C)N(C2CCCCC2)C(=O)C1(NC(=O)c1cccc(OC)c1)C(F)(F)F (stereo not drawn)
730 s	CC1(C(=O)NCc2ccc(F)c(Cl)c2)Oc2cccnc2NC1=O (stereo not drawn)
1210 s	Cc1ccc(Sc2nccnc2N2CCCC(C(=O)NCCCc3ccccc3)C2)cc1 (stereo not drawn)
688 s	Cc1cc2[nH]c(C(=O)NC(C)c3ccccc3)c(CN3CCOCC3)c2s1 (stereo not drawn)
725 s	COCCNC(=O)C1CCN(C2=NS(=O)(=O)C(c3ccc(Cl)cc3)=C2C)CC1
982 s	CCc1nn(CC)c(=O)c2cc(S(=O)(=O)NCc3cccc(Cl)c3)cn12
597 s	COc1ccc(Cn2c(C)c(CNCc3cccnc3)c(C(=O)O)c2C)cc1
787 s	O=C(Nc1ccc(N2CCN(Cc3ccc(F)cc3)C2=O)nc1)c1ccsc1
681 s	Cc1cnc(CNC(=O)c2c(=O)c3ccc(N4CCCN(C)CC4)nc3n3c2sc2ccccc23)cn1
1040 s	O=S(=O)(c1cccc(-c2nnc(-c3ccccc3Br)o2)c1)N1CCCC1
996 s	CC12CC(c3ccccc3O1)C(C(=O)Nc1nc(-c3ccccc3)cs1)C(=O)N2 (stereo not drawn)
623 s	Cc1cc(N2CCN(C(=O)Cc3ccccc3Br)CC2)nc2nnc(C)n12
1040 s	Cc1ccc2c(c1)OCC(=O)N2Cc1nc(-c2ccccc2)no1
556 s	CCCNc1cc(N2CCC(CCC(=O)NCc3cccnc3)CC2)ncn1
786 s	O=C(Cn1ccn2nc(-c3ccc(F)cc3)c(CO)c2c1=O)Nc1ccc2c(c1)OCCO2
1100 s	CCc1ccc(N2CC(c3noc(-c4ccc(F)cc4)n3)CC2=O)cc1 (stereo not drawn)
910 s	CCOc1ccccc1CNC(=O)CN1CCN(Cc2cccc(Cl)c2)C1=O
728 s	COc1ccc(NC(=O)C2CC(=O)N(CCc3c[nH]c4ccc(OC)cc34)C2)cc1 (stereo not drawn)
715 s	CCN1CCn2cc(S(=O)(=O)Nc3cc(F)ccc3F)cc2C1=O
597 s	Cc1cc(C(=O)N2C[C@@H](CO)[C@H](N(C)C)C2)ccc1Br
612 s	Cc1ccc(NC(=O)N2CCc3nc[nH]c3C2)cc1Cl
1130 s	CCOC(=O)c1nc(Nc2cc(C)c(Cl)cc2OC)c2ccccc2n1
690 s	CN1CCn2cc(S(=O)(=O)Nc3ccc(F)cc3Cl)cc2C1=O
837 s	CCS(=O)(=O)N1CCCc2cc(C(=O)NC3CCCC3)ccc21
778 s	O=C(CN1CCN(Cc2ccc(F)cc2)C(=O)C1=O)N1CCN(c2ccccc2F)CC1
1220 s	Cc1ccc(C2Cn3nnc(-c4nc(-c5ccsc5)no4)c3CO2)c(C)c1 (stereo not drawn)
940 s	Cc1nc(-c2cn(C)c3ncccc23)sc1C(=O)Nc1ccc(F)c(F)c1
895 s	CCSc1nnc(-c2nn(C)c3c2CN(S(=O)(=O)c2ccc4c(c2)OCCO4)CC3)n1CC
